By GI50 is commonly meant the concentration giving 50% growth inhibition. As usually defined, the TGI is the concentration giving total growth inhibition. Lower therefore signals greater sensitivity of the cells.

Data on 16 compounds can be found in PubChem BioAssay (NCI).

What all share (test): DTP human tumour cell line panel, 48 h
In assay [1] the test system is A498 renal.
In assay [2] the test system is ACHN renal.
In assay [3] the test system is BT-549 breast.
Assay [4] deals with EKVX NSCLC.
Assay [5] deals with LOX IMVI melanoma.
For assay [6], the system named is MOLT-4 leukemia.
Assay [7] concerns NCI-H23 lung.
In assay [8] the test system is SK-MEL-2 melanoma.
The test system of assay [9] is UACC-257 melanoma.
Assay [10] has as its system UO-31 renal.

Several values for one entry are separate records, joined by “and”; a condition that tells them apart may be missing. Equal entries are not always repeated.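 Dose response: 5 concentrations. Exposure: 48 h. Format: 96-well plates. Endpoint: linear interpolation; highest concentration if not reached. At the GI50, growth is halved. TGI is the concentration that stops growth completely.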

As for `C=C1C(=O)O[C@H]2[C@H]1CC/C(Cn1cc(Cn3ccc4cc(Cl)ccc43)nn1)=C\CC[C@@]1(C)O[C@@H]21`, the GI50 in [1] was 3.39 µM; in assay [2], 1.24 µM; in assay [3], 1.61 µM; in assay [4], 1.73 µM; in assay [5], 1.31 µM; in assay [6], 0.599 µM. The GI50 is 1.99 µM in assay [7], 1.61 µM in [8], 1.7 µM in assay [9] and 1.09 µM in assay [10]. Further, the TGI worked out at 11.7 µM in [1]; 2.5 µM in [2]; 3.3 µM in assay [3]; 3.78 µM in assay [4]; 2.88 µM in assay [5]; 3.16 µM in [6]. For the same compound, the TGI worked out at 4.46 µM in assay [7], 3.72 µM in [8], 3.61 µM in assay [9] and 2.29 µM in assay [10].
Turning to `COc1ccc(C(=O)c2ccc(OC)cc2OC)cc1`, the GI50 in [1] is 5.87 µM; in assay [2] it was 6.26 µM; in [3], 4.06 µM; in assay [4], 7.17 µM; in [5], 4.47 µM; in assay [6], 4.9 µM. In addition, the GI50 in [7] was 3.79 µM; in [8] it was 2.89 µM; in assay [9], 5 µM; in assay [10] it was 2.7 µM. Also, the TGI in [1], in [2], in [3], in assay [4], in [5] and in [6] was more than 100 µM throughout. Besides, the TGI in assay [7] was more than 100 µM; in assay [8], 12.2 µM; in assay [9], more than 100 µM; in [10] it was 39.6 µM.
On to `CN1CCN(Cc2ccc(NC(=O)c3[nH]ncc3Nc3ccnc4ccsc34)cc2)CC1`, for which the GI50 was 1.64 µM in assay [1]; 2.66 µM in assay [2]; 4.3 µM in assay [3]; 2.74 µM in assay [4]; 1.33 µM in assay [5]; 2.09 µM in assay [6]. Also, the GI50 in [7] is 2.03 µM; in assay [8] it was 3.86 µM; in assay [9], 11.6 µM; in assay [10], 1.78 µM. Moreover, the TGI in assay [1] was 4.87 µM; in [2], 9.9 µM; in assay [3], 15.9 µM; in [4] it was 9.81 µM; in assay [5], 4.59 µM; in assay [6], 7.93 µM. The TGI turned out to be 6.64 µM in [7], 14.7 µM in [8], 30 µM in assay [9] and 10.1 µM in [10].
For `O=C1C=CC(=O)N1c1ccc2c(c1)Cc1cc(NC(=O)C(F)(F)F)ccc1-2`, the concentration for total growth inhibition (TGI) in assay [1] is 48.4 µM; in assay [2] it was 16.4 µM; in [3], 31.6 µM; in assay [4], 29.3 µM; in assay [5] it was 32.7 µM; in assay [6] it was more than 100 µM. Moreover, the TGI in assay [7] stood at 32.2 µM; in assay [8] it was 34.2 µM; in assay [9], 35.8 µM; in [10] it was 28.4 µM.
`N#Cc1c(SCc2ccccc2)nc2[nH]c(=S)[nH]c(=S)c2c1-c1ccco1`: the GI50 is 55.3 µM in assay [1]; more than 100 µM in assay [2]; 21 µM in assay [3]; 17 µM in [4]; more than 100 µM in assay [5]; 5.04 µM in assay [6]. The GI50 in assay [7] was 28 µM; in [8], more than 100 µM; in assay [9], 66.5 µM; in [10], 61.2 µM. The TGI in assay [1], in assay [2], in [3], in assay [4], in [5] and in [6] was more than 100 µM each time. In addition, the TGI in assay [7], in [8], in assay [9] and in assay [10] was more than 100 µM in each case.
With `c1cncc(-c2cc(-c3cc(-c4cccnc4)n[nH]3)[nH]n2)c1`, the TGI in assay [1], in [2], in assay [3], in assay [4], in [5] and in [6] was more than 100 µM each time. Further, the TGI in assay [7], in [8], in assay [9] and in assay [10] was more than 100 µM each time.
Regarding `C/C(=C\c1ccn(-c2ccc(N)cc2C(F)(F)F)n1)[C@@H]1C[C@@H]2O[C@]2(C)CCC[C@H](C)[C@H](O)[C@@H](C)C(=O)C(C)(C)[C@@H](O)CC(=O)O1`, the concentration for 50% growth inhibition (GI50) in assay [1] was 0.303 µM; in [2], 0.512 µM; in assay [3] it was 0.553 µM; in [4], 0.747 µM; in [5] it was 0.476 µM; in assay [6], 0.533 µM. The GI50 in assay [7] was 0.548 µM; in [8] it was 0.303 µM; in assay [9], 1.03 µM; in [10], 0.954 µM. Also, the TGI is 2.27 µM in assay [1]; more than 11.1 µM in assay [2]; more than 11.1 µM in assay [3]; more than 11.1 µM in assay [4]; more than 11.1 µM in assay [5]; more than 11.1 µM in assay [6]. Also, the TGI in assay [7] was more than 11.1 µM; in [8], 0.902 µM; in [9], more than 11.1 µM; in [10], more than 11.1 µM.
In the case of `O=C1CN2CCC1C/C2=C\c1ccnc2c(Cl)cccc12` (stereo not drawn), the GI50 in [1] was 69.8 µM; in assay [2] it was 85.3 µM; in assay [3], more than 100 µM; in assay [4], 33 µM; in [5] it was 52.2 µM; in assay [6], 44.4 µM. The GI50 is 57 µM in [7], more than 100 µM in assay [8], 59.7 µM in [9] and 17.7 µM in assay [10]. Also, the TGI in [1], in assay [2], in assay [3], in [4], in assay [5] and in [6] was more than 100 µM throughout. Moreover, the TGI in [7], in [8], in assay [9] and in assay [10] was more than 100 µM each time.
Take `Cc1cc(Nc2ncc(Cl)c(Nc3ccccc3S(=O)(=O)C(C)C)n2)c(OC(C)C)cc1C1CCNCC1`: the GI50 in [1] is 1.88 µM; in assay [2], 1.59 µM and 1.33 µM; in [3], 4.47 µM; in assay [4] it was 1.14 µM; in assay [5] it was 1.36 µM; in assay [6], 1.55 µM. The GI50 in [7] is 1.51 µM; in assay [8] it was 1.47 µM; in assay [9], 1.24 µM; in [10] it was 1.29 µM and 1.14 µM. Also, the TGI was 6.83 µM in assay [1]; 2.94 µM and 2.61 µM in [2]; 2.71 µM in [4]; 2.71 µM in assay [5]; 3.7 µM in assay [6]; 3.07 µM in assay [7]. Moreover, the TGI in [8] is 3.06 µM; in assay [9] it was 2.81 µM; in assay [10], 2.63 µM and 2.36 µM.
For the compound `CCSc1nc(=S)[nH]c2[nH]ncc12`, the GI50 was 21.6 µM in [1]; 93.6 µM in assay [2]; more than 100 µM in [3]; 54.1 µM in [4]; 49.3 µM in assay [5]; more than 100 µM in assay [6]. The GI50 in assay [7] is more than 100 µM; in [8], more than 100 µM; in [9], more than 100 µM; in assay [10], 75.2 µM. Further, the TGI in assay [1] is 72.7 µM; in [2] it was more than 100 µM; in [3], more than 100 µM; in [4] it was more than 100 µM; in assay [5], more than 100 µM; in [6], more than 100 µM. For the same compound, the TGI in assay [7], in [8], in assay [9] and in assay [10] was more than 100 µM in each case.
As for `O=C(c1cccs1)c1c(C(F)(F)F)n([O-])c2cc(C(F)(F)F)ccc2[n+]1=O`, the GI50 is 0.96 µM in assay [1]; 0.159 µM in assay [2]; 0.188 µM in assay [3]; 0.251 µM in assay [4]; 0.0714 µM in assay [5]; 0.0757 µM in assay [6]. In addition, the GI50 in assay [7] was 0.348 µM; in assay [8], 0.915 µM; in [9], 0.662 µM; in assay [10], 0.315 µM. In addition, the TGI in assay [1] is 2.6 µM; in assay [2], 0.303 µM; in [3], 0.367 µM; in assay [4] it was 0.625 µM; in assay [5] it was 0.17 µM; in assay [6], 0.231 µM. Also, the TGI in [7] was found to be 1.27 µM; in assay [8], 2.46 µM; in assay [9], 1.82 µM; in assay [10], 0.656 µM.
In the case of `N#C/C(=C\c1ccc(Cl)cc1)n1nnc2cc(F)c(F)cc21`, the GI50 in assay [1] was 1.28 µM; in [2], 1.64 µM; in assay [3] it was 1.74 µM; in assay [4], 1.67 µM; in [5], 1.57 µM; in assay [6], 2.65 µM. Further, the GI50 in assay [7] is 1.73 µM; in assay [8], 2.03 µM; in [9], 2.14 µM; in assay [10] it was 1.55 µM. Also, the TGI in assay [1] was 2.66 µM; in assay [2], 3.02 µM; in assay [3], 3.43 µM; in assay [4], 3.12 µM; in assay [5], 2.99 µM; in [6], more than 100 µM. Also, the TGI was determined as 3.71 µM in assay [7], 4.83 µM in assay [8], 5.58 µM in assay [9] and 2.88 µM in [10].
For `CN(C)c1ccc2[nH]c(O)c(C=Nc3ccc(S(N)(=O)=O)cc3)c2c1`, the GI50 in [1], in [2], in assay [3], in [4], in assay [5] and in [6] was more than 25 µM each time. The GI50 in assay [7], in [8], in [9] and in assay [10] was more than 25 µM in each case. Besides, the TGI in assay [1], in assay [2], in assay [3], in [4], in [5] and in assay [6] was more than 25 µM in each case. Also, the TGI in [7], in assay [8], in [9] and in assay [10] was more than 25 µM throughout.
In the case of `O=C1C(Br)=C(c2ccccc2)C(c2ccccc2)=C1c1ccccc1`, the TGI in [1] was found to be 29.9 µM; in [2], 6.51 µM; in assay [3] it was 10.9 µM; in [4], 18 µM; in assay [5] it was 2.94 µM; in assay [6], 3.74 µM. Further, the TGI is 10.5 µM in assay [7], 14.4 µM in assay [8], 9.67 µM in [9] and 12.8 µM in assay [10].
As to `Cc1c(N(C(=O)c2cc(-c3cc(Cl)ccc3C(=O)N3Cc4ccccc4C[C@H]3CN3CCOCC3)n(C)c2C)c2ccc(O)cc2)cc(C#N)n1C`, the GI50 in [1] was 23.2 µM; in assay [2], 23.6 µM; in [3] it was 6.41 µM; in assay [4] it was 48.4 µM; in [5], 14.6 µM; in [6], 2.98 µM. Besides, the GI50 in [7] is 35.6 µM; in assay [8], 11.8 µM; in assay [9], 20.1 µM; in assay [10], 15.6 µM. Besides, the TGI in assay [1] is 61.6 µM; in [2] it was more than 100 µM; in [3] it was 26.5 µM; in [4] it was more than 100 µM; in [5], more than 100 µM; in [6], more than 100 µM. The concentration for total growth inhibition (TGI) was more than 100 µM in assay [7], 30.7 µM in [8], more than 100 µM in assay [9] and more than 100 µM in assay [10].
For the compound `COc1cc2c3c(n(CCCn4ccnc4)c(=O)c2cc1OC)-c1ccccc1C3=O`, the GI50 was 0.0449 µM in assay [1]; less than 0.0127 µM in [2]; 0.0623 µM in [3]; 0.833 µM in assay [4]; less than 0.0124 µM in [5]; less than 0.01 µM in [6]. Besides, the figures for the GI50 in assay [7], in assay [8] and in assay [10] were less than 0.0282 µM, 0.927 µM and less than 0.0141 µM, respectively. In addition, the TGI is 0.292 µM in assay [1]; 0.0486 µM in assay [2]; 30.7 µM in [3]; more than 100 µM in [4]; 0.0385 µM in [5]; less than 0.0167 µM in assay [6]. For the same compound, the TGI in [7] turned out to be 0.0695 µM; in assay [8], 17.3 µM; in assay [9] it was 0.199 µM; in [10], 0.0551 µM.
